Data on five molecules can be found in article PMC7649969, “Pyrazolyl-pyrimidones inhibit the function of human solute carrier protein SLC11A2 (hDMT1) by metal chelation” (RSC Medicinal Chemistry, 2020).

Format in all cases: cell-based
The target of assay [1] is T1, SLC39A8 (hZIP8) (Homo sapiens, UniProt Q9C0K1).
T1 construct: DsRED; expressed in transfected cells; host or cells: HEK293T (ATCC CRL-3216), transient transfection with Lipofectamine 2000
T1 sequence (Q9C0K1 23-460): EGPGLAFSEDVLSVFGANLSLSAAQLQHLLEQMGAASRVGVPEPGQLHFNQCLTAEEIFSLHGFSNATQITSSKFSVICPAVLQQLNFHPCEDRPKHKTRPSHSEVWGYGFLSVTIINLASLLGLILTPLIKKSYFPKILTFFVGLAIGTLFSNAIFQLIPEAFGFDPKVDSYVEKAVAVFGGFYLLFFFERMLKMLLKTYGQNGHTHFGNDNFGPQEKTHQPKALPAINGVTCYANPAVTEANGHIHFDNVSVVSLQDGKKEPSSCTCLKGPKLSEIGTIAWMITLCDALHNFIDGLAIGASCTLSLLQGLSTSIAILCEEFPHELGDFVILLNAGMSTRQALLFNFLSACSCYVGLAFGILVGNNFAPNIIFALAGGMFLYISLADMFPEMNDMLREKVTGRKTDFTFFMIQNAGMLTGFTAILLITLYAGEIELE
The assay can be described thus: 55Fe2+ uptake by HEK293T cells transiently transfected with hZIP8. As to conditions: for inhibition of 55Fe2+ uptake by hZIP8: compound 10 μM, 55Fe2+ 1 μM, pH 7.4, HEK293T; for IC50: HEK293T transiently transfected with hZIP8, 55Fe2+ 1 μM, pH 7.4. An excerpt: (§1) Complex formation with Fe^2+ should result in non-selective inhibition of different metal transporters. To test this hypothesis, we investigated whether human SLC39A8 (hZIP8), a transporter of Zn^2+ and Fe^2+ unrelated to SLC11 family, might also be inhibited by our hDMT1 inhibitors. Both SLCs can be tested by inhibition of radioactive iron uptake into HEK293 cells expressing the transporter, at pH 5.5 for hDMT1 and at pH 7.4 for hZIP8.
(§2) Fig. 5 Cross reactivity of hDMT1 inhibitors over the functional activity of the divalent metal transporter hZIP8. (a) ^55Fe^2+ uptake (1 μM) by HEK293T cells (source: American Type Culture Collection, catalog no. CRL-3216) transiently transfected with the empty vector (Ev), hDMT1 or hZIP8. Uptake assay was performed at the optimal pH for the functional activity of each transporter (pH 5.5 and pH 7.4 respectively). The indicated compounds (10 μM) were pre-incubated for 5 min, and then, for 15 min with both compound and ^55Fe^2+. Measured ^55Fe^2+ was corrected by subtracting the background iron uptake measured in non-transfected cells. The data was normalized to the Fe^2+ uptake measured in the presence of DMSO (0.1%) and represented as mean ± SD (N = 5–16; obtained from 2 independent experiments). IC50 determination for pyrazolyl-pyrimidone 13 (b) and bipyridine (c) in HEK293T cells transiently transfected with hDMT1 (left panels) or hZIP8 (right panels). ^55Fe^2+ uptake (1 μM) was measured in the presence of the indicated compound concentration ranges, and the measurements were corrected by subtracting the background iron uptake measured in non-transfected cells. IC50 values were calculated by fitting the data to a sigmoidal 4-parameter equation. Representative experiments are depicted, while IC50 values were calculated as mean ± SD of 3 different experiments.
(§3) Chemicals and reagents were purchased from Merck, except where indicated otherwise.
(§4) Cell Culture. Cellular experiments where conducted either with a HEK293 cell line (ATCC) stably expressing DsRED-hDMT1 plasmid or HEK293T cells (ATCC) transiently transfected with DsRED-hZIP8 or DsRED-hDMT1 plasmids. The cell line stably expressing hDMT1 was generated as described in previous works1,2. In both cases, cells were cultured in Dulbecco´s modified Eagle´s medium (DMEM) supplemented with 10 % foetal bovine serum (FBS), 10 mM HEPES and 1 mM Na-pyruvate under standard cell culture conditions (37 °C, 95 % humidity and air containing 5 % CO2). When culturing the hDMT1 overexpressing cell line, to maintain stable the expression of the exogenous plasmid, culture media was also supplemented with […] geneticin (Life Technologies). […]
(§5) Radiolabelled iron uptake assay. Cells were seeded in clear bottom, white-well, poly-D-lysine coated 96-well plates (Corning). HEK293 cells stably over-expressing hDMT1 were seeded 24 hours before the experiment at a density of 50,000 cells/well. HEK293T cells were seeded at 30,000 cells/well 48 hours before the experiment, and 24 hours after were transfected […]
(§6) using Lipofectamine 2000 (Life technologies) as described in the manufacturer’s protocol.
(§7) Before the uptake assay, culture media was aspirated and the cells were washed with the uptake solution (140 mM NaCl, 2.5 mM KCl, 1 mM CaCl2, 1 mM MgCl2, 1.2 mM K2HPO4, 10 mM glucose, 5 mM HEPES, 5 mM MES, pH 7.4). To determine the iron uptake, the cells were incubated for 15 min at room temperature (RT) with uptake solution (pH 5.5) supplemented with 100 µM Ascorbic acid, and the indicated amount of non-radioactive Ferrous iron (Fe2+) and radiolabelled 55Fe2+ (American Radiolabelled) (0.5 µCi/mL). To stop the uptake process, the solution containing the radiotracer was removed and cells were washed with ice-cold uptake solution (pH 7.5). To determine the iron accumulated within the cells during the incubation time, the scintillation cocktail Mycrosinth 20 (PerkinElmer) was added to each well, and the cells were incubated during 1 hour at RT under constant agitation. […]

In assay [2] the target is T2, hDMT1 (Homo sapiens, UniProt P49281).
T2 sequence (P49281 1-568): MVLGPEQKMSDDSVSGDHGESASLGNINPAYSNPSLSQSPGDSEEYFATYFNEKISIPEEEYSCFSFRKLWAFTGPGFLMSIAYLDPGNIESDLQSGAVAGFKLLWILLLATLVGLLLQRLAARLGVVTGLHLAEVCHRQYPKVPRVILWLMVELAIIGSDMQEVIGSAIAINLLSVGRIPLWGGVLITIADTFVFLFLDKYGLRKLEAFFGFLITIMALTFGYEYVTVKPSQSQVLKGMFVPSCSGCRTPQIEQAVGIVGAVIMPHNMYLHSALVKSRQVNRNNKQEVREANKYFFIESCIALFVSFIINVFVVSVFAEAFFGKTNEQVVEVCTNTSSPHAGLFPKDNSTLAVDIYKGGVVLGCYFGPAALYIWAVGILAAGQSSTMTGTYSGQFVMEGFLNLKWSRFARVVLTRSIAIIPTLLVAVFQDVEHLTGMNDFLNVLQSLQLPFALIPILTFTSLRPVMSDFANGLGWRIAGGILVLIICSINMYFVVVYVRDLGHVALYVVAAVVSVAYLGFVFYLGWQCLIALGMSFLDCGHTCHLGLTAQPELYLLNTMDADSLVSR
The assay can be described thus: 55Fe2+ uptake by HEK293T cells transiently transfected with hDMT1. Set-up: DsRED; expressed in transfected cells; host or cells: HEK293T (ATCC CRL-3216), transient transfection with Lipofectamine 2000. As to conditions: for inhibition of 55Fe2+ uptake by hDMT1: compound 10 μM, 55Fe2+ 1 μM, pH 5.5, HEK293T; for IC50: HEK293T transiently transfected with hDMT1, 55Fe2+ 1 μM, pH 5.5.
Excerpt: as §1, §2, §3, §4, §5, §6, §7

For assay [3], the target named is T3, hDMT1 (SLC11A2) (Homo sapiens, UniProt P49281).
T3 construct: DsRED; expressed in transfected cells
T3 sequence (P49281 1-568): T2 sequence (P49281 1-568)
The assay can be described thus: radioactive iron uptake assay in HEK293 cells stably overexpressing hDMT1. As to conditions: for IC50: radioactive iron 1 μM, 15 min incubation, extracellular pH 5.5, HEK293 stably overexpressing hDMT1; for mode of inhibition: 55Fe2+ uptake kinetics; for Ki: [Fe^2+] → 0, Dixon plot analysis, read-out: inhibition constant Ki; for Ligand efficiency: from IC50 of radioactive iron uptake in HEK293-hDMT1; for inhibition constant Kii: saturating iron, 1/Vmax vs [I].

Entries after “also recorded” stand apart in the source; their conditions may differ.

`Cc1cc(O)nc(-n2nc(C)cc2C)n1` [Compound 5]: in assay [1], the “inhibition of 55Fe2+ uptake by hZIP8” value is listed as “inhibited both transporters”. The “inhibition of 55Fe2+ uptake by hDMT1” value in assay [2] is reported as “inhibited both transporters”. Besides, in assay [3], the IC50 – broadly, the concentration that gives 50% inhibition – stood at 13.1 ± 0.7 µM.
Consider `Cc1cc(=O)[nH]c(-n2nc3c(c2C)CCCC3)n1` [Compound 13], for which, in assay [1], the IC50 was roughly 1.1 µM and the “inhibition of 55Fe2+ uptake by hZIP8” value was “inhibited both transporters; also recorded: cross-inhibition”. Moreover, in assay [2], the IC50 is roughly 1.1 µM and the “inhibition of 55Fe2+ uptake by hDMT1” value is on record as “inhibited both transporters”. In assay [3], the mode of inhibition entry is “non-competitive inhibitor”; the Ki (as a rule, the equilibrium dissociation constant of an inhibitor or competing ligand from its target) turned out to be 2 µM; the Ligand efficiency is 0.45; the IC50 stood at 1.1 ± 0.01 µM. The “inhibition constant Kii” value in assay [3] is 1.7 µM. For the same molecule, in assay [3] (radioactive iron uptake), the “improvement of IC50 over initial inhibitor 5” value is 10 fold.
For the molecule `N=C(N)SCc1cccc2c1oc1c(CSC(=N)N)cccc12` [Compound 1, reference compound], the “inhibition of 55Fe2+ uptake by hZIP8” value in assay [1] is “no measurable activity on hZIP8”. The “inhibition of 55Fe2+ uptake by hDMT1” value in assay [2] is listed as “only inhibited hDMT1”. Moreover, in assay [3], the mode of inhibition entry is reported as “competitive inhibition”, the Ki came to 1.4 µM, the Ligand efficiency is 0.35 and the IC50 stood at 1.76 ± 0.06 µM. The “inhibition constant Kii” value in assay [3] was 15.6 µM. The “potency weaker than originally reported value based on a calcein assay” value in assay [3] (radioactive iron uptake vs reported calcein assay) is reported as 5 fold.
With `c1ccc(-c2ccccn2)nc1` [bipyridine], in assay [1], the IC50 was roughly 6.5 µM and the “inhibition of 55Fe2+ uptake by hZIP8” value is “inhibited both transporters”. In assay [2], the IC50 was roughly 6.5 µM and the “inhibition of 55Fe2+ uptake by hDMT1” value was “inhibited both transporters”.
As to `Cc1nn(-c2ccccn2)c(O)c1C(=O)Nc1cccc(C(F)(F)F)c1` [Compound 3, reference compound], the “inhibition of 55Fe2+ uptake by hZIP8” value in assay [1] was “inhibited both transporters”. The “inhibition of 55Fe2+ uptake by hDMT1” value in assay [2] was “inhibited both transporters”.
